# According to BindingDB's records for doi:10.7270/Q2D21W1M (Nmmlsc, 2009):
# Target: T1, GTPase KRas [1-37] (Homo sapiens, UniProt G3V5T7)
# T1 construct: 1-37
# Test: wildtype Ras GTP binding inhibitors, SAR follow-up, biochemical, additional analogs, multiplex flow cytometry, Ki (AID 2038)
# Details: not given
# T1 sequence (G3V5T7 whole entry): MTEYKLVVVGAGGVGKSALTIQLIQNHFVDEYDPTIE
row,Compound,EC50 [µM]
1,O=C1Nc2c(Cl)cccc2C1=C1Nc2ccccc2C1=O,30
2,O=C1Nc2c(Br)cccc2C1=C1Nc2ccccc2C1=O,30
3,O=C1Nc2c(F)cccc2C1=C1Nc2ccccc2C1=O,30
4,O=C1NC(=O)/C(=C2/C(=O)Nc3ccccc32)N1,30
5,O=C1Nc2ccc(Br)cc2C1=C1Nc2ccccc2C1=O,30
6,"O=C1Nc2ccccc2/C1=C1/Nc2ccccc2C1=O [2-[(3Z)-2-oxo-2,3-dihydro-1H-indol-3-ylidene]-2,3-dihydro-1H-indol-3-one]",30
7,O=C1N=c2ccccc2=C1c1[nH]c2ccccc2c1NO [3-[3-(hydroxyamino)-1H-indol-2-yl]-2-indolone],30
8,O=C1N=c2ccc(Br)cc2=C1c1[nH]c2ccccc2c1NO [5-bromanyl-3-[3-(oxidanylamino)-1H-indol-2-yl]indol-2-one],30
9,O=C1N=c2c(Br)cccc2=C1c1[nH]c2ccccc2c1NO [7-bromanyl-3-[3-(oxidanylamino)-1H-indol-2-yl]indol-2-one],37.5
10,O=C1N=c2c(Cl)cccc2=C1c1[nH]c2ccccc2c1NO [7-chloro-3-[3-(hydroxyamino)-1H-indol-2-yl]-2-indolone],30
11,O=C1N=c2c(F)cccc2=C1c1[nH]c2ccccc2c1NO [7-fluoro-3-[3-(hydroxyamino)-1H-indol-2-yl]-2-indolone],30
12,O=C1NC(=S)N/C1=C1\C(=O)Nc2ccccc21 [(3Z)-3-(5-oxo-2-sulfanylideneimidazolidin-4-ylidene)-1H-indol-2-one],30
13,COc1ccc2cc([C@H](C)C(=O)O)ccc2c1 [UNM-0000306098],30
14,C[C@@H](C(=O)O)c1cccc(Oc2ccccc2)c1 [calcium;2-(3-phenoxyphenyl)propanoic acid;hydrate],30
15,COc1ccc2cc([C@@H](C)C(=O)O)ccc2c1 [sodium;(2R)-2-(6-methoxy-2-naphthalenyl)propanoate],3.11

# Same assay, conditions: inactive by the depositor's call
row,Compound,EC50 [µM]
1,O=C1Nc2cccc(Br)c2/C1=C1/Cc2ccccc2C1=O,30
2,COc1ccc(S(=O)(=O)n2c(N)c(C#N)c(-c3ccccc3)c2C(=O)c2ccc(Br)cc2)cc1,30
3,O=[N+]([O-])c1ccc(C#Cc2ccccc2)cc1,30
4,O=C(C#Cc1ccccc1)c1ccc(OC(F)(F)F)cc1,30
5,COc1ccc(C(=O)C#Cc2ccccc2)cc1 [1-(4-methoxyphenyl)-3-phenyl-2-propyn-1-one],30
6,O=C(C#Cc1ccccc1)c1ccc([N+](=O)[O-])cc1 [1-(4-nitrophenyl)-3-phenyl-2-propyn-1-one],30
7,CC(C(=O)O)c1cccc(C(=O)c2ccccc2)c1 (configuration not stated) [2-(3-benzoylphenyl)propanoic acid],30
8,COc1ccc2cc(CC(=O)O)ccc2c1 [2-(6-methoxynaphthalen-2-yl)ethanoic acid],30
9,CC(=O)Oc1ccccc1C(=O)O [2-(acetyloxy)benzoic acid],30
10,"CCCCS(=O)(=O)n1c(N)c(C#N)c(-c2cc(OC)c(OC)c(OC)c2)c1C(=O)c1ccccc1 [2-amino-5-benzoyl-1-butylsulfonyl-4-(3,4,5-trimethoxyphenyl)-3-pyrrolecarbonitrile]",30
11,COc1ccc(S(=O)(=O)n2c(N)c(C#N)c(-c3cncc(Br)c3)c2C(=O)c2ccccc2)cc1 [2-amino-5-benzoyl-4-(5-bromo-3-pyridinyl)-1-(4-methoxyphenyl)sulfonyl-3-pyrrolecarbonitrile],30
12,COc1ccc(-c2c(C#N)c(N)n(S(C)(=O)=O)c2C(=O)c2ccccc2)cc1Br [2-azanyl-4-(3-bromanyl-4-methoxy-phenyl)-1-methylsulfonyl-5-(phenylcarbonyl)pyrrole-3-carbonitrile],30
13,"COc1cc(-c2c(C#N)c(N)n(S(=O)(=O)c3c(C(C)C)cc(C(C)C)cc3C(C)C)c2C(=O)c2ccccc2)cc(OC)c1OC [2-azanyl-5-(phenylcarbonyl)-4-(3,4,5-trimethoxyphenyl)-1-[2,4,6-tri(propan-2-yl)phenyl]sulfonyl-pyrrole-3-carbonitrile]",30
14,O=C(C#Cc1ccccc1)c1cccnc1 [3-phenyl-1-pyridin-3-ylprop-2-yn-1-one],30
15,COC(=O)c1ccc(C(=O)C#Cc2ccccc2)cc1 [4-(1-oxo-3-phenylprop-2-ynyl)benzoic acid methyl ester],30
16,N#Cc1ccc(C(=O)C#Cc2ccccc2)cc1 [4-(3-phenylprop-2-ynoyl)benzenecarbonitrile],30
17,O=C1Nc2c(Br)cccc2/C1=C1/Cc2ccccc2C1=O [(3E)-7-bromo-3-(3-oxo-1H-inden-2-ylidene)-1H-indol-2-one],30
18,CC(C)Cc1ccc([C@H](C)C(=O)O)cc1 [(S)-2-(4-Isobutyl-phenyl)-propionic acid],30
19,O=C1Nc2ccccc2/C1=C1/Cc2ccccc2C1=O [UNM-0000305763],30
20,N#Cc1c(-c2ccc(Cl)cc2)c(C(=O)c2ccccc2)n(S(=O)(=O)c2ccc([N+](=O)[O-])cc2)c1N [UNM-0000305780],30
21,COc1ccc(S(=O)(=O)n2c(N)c(C#N)c(-c3cc(Br)c(OC)c(OC)c3)c2C(=O)c2ccccc2)cc1 [UNM-0000305782],30
22,O=C(C#Cc1ccccc1)c1ccccc1[N+](=O)[O-] [UNM-0000306038],30
23,O=C(C#Cc1ccccc1)c1ccccc1 [UNM-0000306039],30
24,O=C(C#Cc1ccccc1)c1ccc(Cl)cc1 [UNM-0000306055],30
25,O=C(C#Cc1ccccc1)c1ccc(F)cc1 [UNM-0000306059],31
26,CC1=C(CC(=O)O)c2cc(F)ccc2/C1=C/c1ccc([S+](C)[O-])cc1 (configuration not stated) [UNM-0000306136],30
27,CSc1ccc(/C=C2/C(C)=C(CC(=O)O)c3cc(F)ccc32)cc1 [{6-Fluoro-2-methyl-3-[1-(4-methylsulfanyl-phenyl)-meth-(E)-ylidene]-3H-inden-1-yl}-acetic acid],30
